Experimental data: ChEMBL document CHEMBL5291721, “A preclinical secondary pharmacology resource illuminates target-adverse drug reaction associations of marketed drugs” (Nat Commun, 2023)

Legend:
[1] = biological target: T1, Alpha-2A adrenergic receptor (Homo sapiens, UniProt P08913); format: functional, cell-based
T1 sequence (P08913 whole entry): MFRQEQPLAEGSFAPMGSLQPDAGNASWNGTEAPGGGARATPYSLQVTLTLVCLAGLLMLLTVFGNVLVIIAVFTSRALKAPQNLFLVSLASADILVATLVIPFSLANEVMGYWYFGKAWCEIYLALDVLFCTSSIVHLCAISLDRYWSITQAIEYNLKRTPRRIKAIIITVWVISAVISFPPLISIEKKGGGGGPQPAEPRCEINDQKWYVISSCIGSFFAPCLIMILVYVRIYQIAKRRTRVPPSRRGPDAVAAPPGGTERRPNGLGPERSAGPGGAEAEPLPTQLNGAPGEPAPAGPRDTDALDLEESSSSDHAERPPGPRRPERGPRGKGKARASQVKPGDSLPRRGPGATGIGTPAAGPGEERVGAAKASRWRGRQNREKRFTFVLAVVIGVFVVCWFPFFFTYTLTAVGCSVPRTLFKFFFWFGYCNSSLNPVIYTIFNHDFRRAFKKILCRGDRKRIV

[2] = biological target: T2, Type-1 angiotensin II receptor (Homo sapiens, UniProt P30556)
T2 sequence (P30556 whole entry): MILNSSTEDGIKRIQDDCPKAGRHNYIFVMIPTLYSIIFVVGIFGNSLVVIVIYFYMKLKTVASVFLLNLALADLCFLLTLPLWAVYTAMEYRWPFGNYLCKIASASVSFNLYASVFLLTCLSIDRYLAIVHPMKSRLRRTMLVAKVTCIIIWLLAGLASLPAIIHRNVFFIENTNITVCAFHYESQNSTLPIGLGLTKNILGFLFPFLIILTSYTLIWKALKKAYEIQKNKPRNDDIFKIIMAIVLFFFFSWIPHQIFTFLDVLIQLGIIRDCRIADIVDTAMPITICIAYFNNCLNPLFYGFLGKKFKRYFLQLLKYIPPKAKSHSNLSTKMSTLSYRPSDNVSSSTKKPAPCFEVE

[3] = biological target: T3, Muscarinic acetylcholine receptor M2 (Homo sapiens, UniProt P08172); format: functional, cell-based
T3 sequence (P08172 whole entry): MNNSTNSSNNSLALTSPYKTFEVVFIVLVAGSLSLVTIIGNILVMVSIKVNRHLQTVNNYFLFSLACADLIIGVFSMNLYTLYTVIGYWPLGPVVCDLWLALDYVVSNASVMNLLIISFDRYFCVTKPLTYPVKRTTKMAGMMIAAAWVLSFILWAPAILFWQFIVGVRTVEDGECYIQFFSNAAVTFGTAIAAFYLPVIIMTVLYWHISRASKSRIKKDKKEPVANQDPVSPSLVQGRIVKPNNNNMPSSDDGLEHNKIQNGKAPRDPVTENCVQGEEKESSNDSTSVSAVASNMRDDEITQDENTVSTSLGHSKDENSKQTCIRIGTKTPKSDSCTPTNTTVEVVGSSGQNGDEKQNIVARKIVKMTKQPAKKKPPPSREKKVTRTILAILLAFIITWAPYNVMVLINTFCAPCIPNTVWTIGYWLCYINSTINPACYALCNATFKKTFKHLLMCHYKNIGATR

[4] = biological target: Neuronal acetylcholine receptor subunit alpha-4 (Homo sapiens, UniProt P43681)
[5] = biological target: Gamma-aminobutyric acid receptor subunit alpha-1 (Rattus norvegicus, UniProt P62813); format: functional
[6] = biological target: Growth hormone secretagogue receptor type 1 (Homo sapiens, UniProt Q92847)
Histamine H1 receptor = Histamine H1 receptor (Homo sapiens, UniProt P35367)
[7] = biological target: 5-hydroxytryptamine receptor 2A (Homo sapiens, UniProt P28223); format: functional, cell-based
[8] = biological target: T4, 5-hydroxytryptamine receptor 3A (Homo sapiens, UniProt P46098); format: functional
T4 sequence (P46098 whole entry): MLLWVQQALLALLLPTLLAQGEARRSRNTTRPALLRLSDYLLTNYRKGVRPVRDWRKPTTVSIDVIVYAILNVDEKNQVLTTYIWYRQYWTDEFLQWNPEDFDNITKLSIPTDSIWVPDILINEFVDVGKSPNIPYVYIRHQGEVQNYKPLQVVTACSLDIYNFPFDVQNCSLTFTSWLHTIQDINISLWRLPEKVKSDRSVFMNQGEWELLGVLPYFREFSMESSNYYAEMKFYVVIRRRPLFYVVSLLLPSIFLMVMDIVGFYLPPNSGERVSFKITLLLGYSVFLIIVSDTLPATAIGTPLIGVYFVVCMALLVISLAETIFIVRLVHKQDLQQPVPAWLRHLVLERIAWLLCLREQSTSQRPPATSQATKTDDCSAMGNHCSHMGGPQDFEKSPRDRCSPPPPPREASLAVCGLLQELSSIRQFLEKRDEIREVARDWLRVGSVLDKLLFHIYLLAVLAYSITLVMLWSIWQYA

[9] = biological target: Delta-type opioid receptor (Homo sapiens, UniProt P41143)
[10] = biological target: Sodium-dependent dopamine transporter (Homo sapiens, UniProt Q01959)
[11] = biological target: Sodium-dependent noradrenaline transporter (Homo sapiens, UniProt P23975)
[12] = biological target: Sodium-dependent serotonin transporter (Homo sapiens, UniProt P31645)
Note: assay procedure not described here.

Delta-type opioid receptor, sequence (P41143 whole entry): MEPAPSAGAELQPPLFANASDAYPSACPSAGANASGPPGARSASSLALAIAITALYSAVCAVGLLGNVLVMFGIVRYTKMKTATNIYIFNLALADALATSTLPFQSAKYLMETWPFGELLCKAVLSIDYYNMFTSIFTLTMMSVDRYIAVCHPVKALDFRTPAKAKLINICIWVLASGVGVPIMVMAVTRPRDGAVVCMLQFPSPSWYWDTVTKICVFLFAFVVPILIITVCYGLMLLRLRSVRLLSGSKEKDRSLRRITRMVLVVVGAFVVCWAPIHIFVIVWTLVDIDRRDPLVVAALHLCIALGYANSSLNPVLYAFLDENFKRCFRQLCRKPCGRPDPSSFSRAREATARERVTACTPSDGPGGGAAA
Neuronal acetylcholine receptor subunit alpha-4, sequence (P43681 whole entry): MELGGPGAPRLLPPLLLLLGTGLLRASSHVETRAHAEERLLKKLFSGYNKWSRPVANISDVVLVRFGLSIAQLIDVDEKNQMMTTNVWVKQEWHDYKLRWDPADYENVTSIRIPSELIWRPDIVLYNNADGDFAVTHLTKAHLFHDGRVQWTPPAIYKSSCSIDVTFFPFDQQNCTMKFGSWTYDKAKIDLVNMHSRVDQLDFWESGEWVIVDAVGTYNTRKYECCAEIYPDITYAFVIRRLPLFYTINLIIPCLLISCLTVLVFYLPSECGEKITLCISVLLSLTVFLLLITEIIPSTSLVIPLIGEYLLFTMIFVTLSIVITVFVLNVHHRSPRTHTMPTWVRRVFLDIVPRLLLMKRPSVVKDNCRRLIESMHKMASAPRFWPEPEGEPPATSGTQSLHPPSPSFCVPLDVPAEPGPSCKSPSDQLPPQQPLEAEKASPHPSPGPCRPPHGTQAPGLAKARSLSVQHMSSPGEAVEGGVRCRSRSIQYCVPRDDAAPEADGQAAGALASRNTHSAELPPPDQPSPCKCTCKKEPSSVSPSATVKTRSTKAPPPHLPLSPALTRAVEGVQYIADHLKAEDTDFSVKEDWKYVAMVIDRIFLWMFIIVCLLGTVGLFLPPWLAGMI
Growth hormone secretagogue receptor type 1, sequence (Q92847 whole entry): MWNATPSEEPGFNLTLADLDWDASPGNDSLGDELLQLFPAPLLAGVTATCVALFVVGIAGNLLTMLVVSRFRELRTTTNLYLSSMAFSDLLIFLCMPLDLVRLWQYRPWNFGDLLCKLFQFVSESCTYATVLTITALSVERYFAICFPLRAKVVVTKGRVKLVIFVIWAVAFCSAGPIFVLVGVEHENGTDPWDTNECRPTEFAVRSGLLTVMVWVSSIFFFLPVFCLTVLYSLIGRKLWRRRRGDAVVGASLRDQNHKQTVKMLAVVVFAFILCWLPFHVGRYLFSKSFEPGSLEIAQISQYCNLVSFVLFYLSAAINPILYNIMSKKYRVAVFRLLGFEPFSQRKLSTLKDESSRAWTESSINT
5-hydroxytryptamine receptor 2A, sequence (P28223 whole entry): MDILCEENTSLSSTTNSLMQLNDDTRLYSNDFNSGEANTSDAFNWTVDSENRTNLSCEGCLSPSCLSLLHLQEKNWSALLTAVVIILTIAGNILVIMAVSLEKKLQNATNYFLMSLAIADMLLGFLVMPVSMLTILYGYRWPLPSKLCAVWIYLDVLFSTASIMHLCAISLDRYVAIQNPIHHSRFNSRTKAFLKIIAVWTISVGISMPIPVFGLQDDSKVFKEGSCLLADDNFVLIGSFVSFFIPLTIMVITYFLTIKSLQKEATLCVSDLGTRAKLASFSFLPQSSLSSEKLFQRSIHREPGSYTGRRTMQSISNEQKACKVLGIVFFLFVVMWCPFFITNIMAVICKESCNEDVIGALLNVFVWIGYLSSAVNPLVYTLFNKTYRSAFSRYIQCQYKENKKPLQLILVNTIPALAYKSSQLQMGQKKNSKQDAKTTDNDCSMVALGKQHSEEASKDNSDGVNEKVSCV
Sodium-dependent serotonin transporter, sequence (P31645 whole entry): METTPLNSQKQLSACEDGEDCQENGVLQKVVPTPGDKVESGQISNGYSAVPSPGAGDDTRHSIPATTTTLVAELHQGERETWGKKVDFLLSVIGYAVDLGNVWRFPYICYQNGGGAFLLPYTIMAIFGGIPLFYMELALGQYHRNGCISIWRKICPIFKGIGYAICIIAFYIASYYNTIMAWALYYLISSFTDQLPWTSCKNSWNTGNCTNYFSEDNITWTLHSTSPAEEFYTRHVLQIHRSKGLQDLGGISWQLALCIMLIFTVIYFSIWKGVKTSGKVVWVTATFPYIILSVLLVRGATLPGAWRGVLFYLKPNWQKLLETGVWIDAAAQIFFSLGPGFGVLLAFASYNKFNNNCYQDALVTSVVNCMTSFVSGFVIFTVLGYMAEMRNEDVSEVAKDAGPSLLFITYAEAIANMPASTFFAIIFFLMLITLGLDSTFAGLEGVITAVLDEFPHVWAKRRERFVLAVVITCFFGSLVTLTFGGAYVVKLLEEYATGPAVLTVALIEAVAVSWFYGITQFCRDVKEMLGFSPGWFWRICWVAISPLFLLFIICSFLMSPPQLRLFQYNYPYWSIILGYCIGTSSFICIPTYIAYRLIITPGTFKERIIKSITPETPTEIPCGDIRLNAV
Sodium-dependent dopamine transporter, sequence (Q01959 whole entry): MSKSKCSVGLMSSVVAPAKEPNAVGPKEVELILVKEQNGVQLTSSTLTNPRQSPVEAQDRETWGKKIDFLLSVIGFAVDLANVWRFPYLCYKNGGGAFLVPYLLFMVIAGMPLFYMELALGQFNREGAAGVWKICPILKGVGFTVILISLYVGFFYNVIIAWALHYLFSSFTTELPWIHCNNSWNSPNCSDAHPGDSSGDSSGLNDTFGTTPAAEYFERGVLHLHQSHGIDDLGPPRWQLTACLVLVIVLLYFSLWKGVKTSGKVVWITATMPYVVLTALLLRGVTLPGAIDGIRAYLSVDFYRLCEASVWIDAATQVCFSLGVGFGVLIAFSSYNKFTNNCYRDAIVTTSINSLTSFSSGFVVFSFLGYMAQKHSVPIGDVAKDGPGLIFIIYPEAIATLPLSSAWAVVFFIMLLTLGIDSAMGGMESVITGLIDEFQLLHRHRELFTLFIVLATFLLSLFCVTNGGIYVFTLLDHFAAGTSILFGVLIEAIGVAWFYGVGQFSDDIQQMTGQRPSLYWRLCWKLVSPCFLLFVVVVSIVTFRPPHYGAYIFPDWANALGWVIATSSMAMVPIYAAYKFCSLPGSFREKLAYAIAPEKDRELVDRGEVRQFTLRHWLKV
Sodium-dependent noradrenaline transporter, sequence (P23975 whole entry): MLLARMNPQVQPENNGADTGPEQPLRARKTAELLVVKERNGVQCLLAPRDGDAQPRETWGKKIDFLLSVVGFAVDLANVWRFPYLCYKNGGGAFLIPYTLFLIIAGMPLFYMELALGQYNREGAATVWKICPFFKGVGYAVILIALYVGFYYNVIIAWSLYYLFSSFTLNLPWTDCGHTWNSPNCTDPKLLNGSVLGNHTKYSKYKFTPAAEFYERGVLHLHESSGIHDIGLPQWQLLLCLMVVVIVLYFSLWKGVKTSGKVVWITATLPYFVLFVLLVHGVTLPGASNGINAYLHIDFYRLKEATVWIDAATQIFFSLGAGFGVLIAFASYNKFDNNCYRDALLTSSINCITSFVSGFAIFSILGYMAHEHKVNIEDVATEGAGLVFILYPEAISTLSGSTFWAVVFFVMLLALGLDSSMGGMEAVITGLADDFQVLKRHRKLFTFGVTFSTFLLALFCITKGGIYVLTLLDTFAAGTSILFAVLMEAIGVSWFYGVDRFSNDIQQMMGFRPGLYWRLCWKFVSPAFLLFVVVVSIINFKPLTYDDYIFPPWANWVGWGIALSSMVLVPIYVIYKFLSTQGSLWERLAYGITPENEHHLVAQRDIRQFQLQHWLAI
Histamine H1 receptor, sequence (P35367 whole entry): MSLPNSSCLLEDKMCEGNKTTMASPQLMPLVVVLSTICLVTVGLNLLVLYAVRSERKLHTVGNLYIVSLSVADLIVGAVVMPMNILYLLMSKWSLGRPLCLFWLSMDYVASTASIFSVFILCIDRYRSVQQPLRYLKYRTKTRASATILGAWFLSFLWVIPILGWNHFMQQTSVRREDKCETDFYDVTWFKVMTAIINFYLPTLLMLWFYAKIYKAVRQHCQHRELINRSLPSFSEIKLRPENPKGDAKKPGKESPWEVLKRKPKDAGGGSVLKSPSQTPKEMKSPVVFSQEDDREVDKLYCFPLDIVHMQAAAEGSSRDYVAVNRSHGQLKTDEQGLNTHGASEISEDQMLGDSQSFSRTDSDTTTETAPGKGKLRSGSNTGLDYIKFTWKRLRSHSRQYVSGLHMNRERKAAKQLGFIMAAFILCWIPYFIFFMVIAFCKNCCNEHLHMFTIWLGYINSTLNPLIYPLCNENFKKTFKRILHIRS
Gamma-aminobutyric acid receptor subunit alpha-1, sequence (P62813 whole entry): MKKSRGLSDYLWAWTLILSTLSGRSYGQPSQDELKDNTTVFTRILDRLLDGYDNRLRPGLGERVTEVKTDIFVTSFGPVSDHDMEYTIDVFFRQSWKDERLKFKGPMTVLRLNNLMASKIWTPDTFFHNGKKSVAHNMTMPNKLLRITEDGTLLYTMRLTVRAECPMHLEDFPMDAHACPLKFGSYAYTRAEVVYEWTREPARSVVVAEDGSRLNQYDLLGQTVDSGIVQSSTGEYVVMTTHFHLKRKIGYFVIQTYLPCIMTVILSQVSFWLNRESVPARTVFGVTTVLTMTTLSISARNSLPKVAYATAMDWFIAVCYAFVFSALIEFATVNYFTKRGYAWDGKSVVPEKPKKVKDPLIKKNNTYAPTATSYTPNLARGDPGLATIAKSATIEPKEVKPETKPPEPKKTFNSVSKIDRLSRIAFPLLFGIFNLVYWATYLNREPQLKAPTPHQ

Compound | AC50 [1] | AC50 [2] | AC50 [3] | AC50 [4] | AC50 [5] | AC50 [6] | AC50 (Histamine H1 receptor) | AC50 [7] | AC50 [8] | AC50 [9] | AC50 [10] | AC50 [11] | AC50 [12]
COc1ccc(-n2nc(C(N)=O)c3c2C(=O)N(c2ccc(N4CCCCC4=O)cc2)CC3)cc1 [APIXABAN] | > 30 µM | > 30 µM | > 30 µM | > 30 µM | > 30 µM | > 30 µM | > 30 µM | > 30 µM | > 30 µM | > 30 µM | > 30 µM | > 30 µM | > 30 µM
CCN1C(=O)NC(c2ccccc2)C1=O (stereo not given) [ETHOTOIN] | > 30 µM | > 30 µM | > 30 µM | > 30 µM | > 30 µM | > 30 µM | > 30 µM | > 30 µM | > 30 µM | > 30 µM | > 30 µM | > 30 µM | > 30 µM
CO/N=C(\C(=O)N[C@@H]1C(=O)N2C(C(=O)[O-])=C(C[n+]3ccc(N)n3CCO)CS[C@H]12)c1csc(N)n1 [CEFOSELIS] | > 30 µM | > 30 µM | > 30 µM | > 30 µM | > 30 µM | > 30 µM | > 30 µM | > 30 µM | > 30 µM | > 30 µM | > 30 µM | > 30 µM | > 30 µM
CCCO[C@H]1[C@@H]([C@@H](COCc2ccc(Cl)cc2)OCc2ccc(Cl)cc2)OC(OCC)[C@@H]1O (stereo not given in full) [CLOBENOSIDE] | > 30 µM | > 30 µM | > 30 µM | > 30 µM | > 30 µM | > 30 µM | > 30 µM | > 30 µM | > 30 µM | > 30 µM | > 30 µM | > 30 µM | > 30 µM
SITOSTEROLS | > 30 µM | > 30 µM | > 30 µM | > 30 µM | > 30 µM | > 30 µM | > 30 µM | > 30 µM | > 30 µM | > 30 µM | > 30 µM | > 30 µM | –
CC(=O)OCC1=C(C(=O)O)N2C(=O)[C@@H](NC(=O)Cc3cccs3)[C@H]2SC1 [CEPHALOTHIN] | > 30 µM | > 30 µM | > 30 µM | > 30 µM | > 30 µM | > 30 µM | > 30 µM | > 30 µM | > 30 µM | > 30 µM | > 30 µM | > 30 µM | > 30 µM
CCC(=O)O[C@H](CC(=O)O)C[N+](C)(C)C [LEVOCARNITINE PROPIONATE] | > 30 µM | > 30 µM | > 30 µM | > 30 µM | > 30 µM | > 30 µM | > 30 µM | > 30 µM | > 30 µM | > 30 µM | > 30 µM | > 30 µM | > 30 µM
O=C(O)c1nn(Cc2ccc(Cl)cc2Cl)c2ccccc12 [LONIDAMINE] | > 30 µM | > 30 µM | > 30 µM | > 30 µM | > 30 µM | > 30 µM | > 30 µM | > 30 µM | > 30 µM | > 30 µM | > 30 µM | > 30 µM | > 30 µM
CCCCOC(=O)c1ccc(N)cc1 [BUTAMBEN] | > 30 µM | > 30 µM | > 30 µM | > 30 µM | > 30 µM | > 30 µM | – | – | > 30 µM | > 30 µM | > 30 µM | > 30 µM | –
CCCCCCOC(=O)NC(=N)c1ccc(NCc2nc3cc(C(=O)N(CCC(=O)OCC)c4ccccn4)ccc3n2C)cc1 [DABIGATRAN ETEXILATE] | > 30 µM | 7.7 µM | > 30 µM | > 30 µM | > 30 µM | > 30 µM | > 30 µM | > 30 µM | > 30 µM | > 30 µM | 17 µM | 6.3 µM | > 30 µM
CC1=C(C(=O)O)N2C(=O)[C@@H](NC(=O)[C@H](N)C3=CCC=CC3)[C@H]2SC1 [CEPHRADINE] | > 30 µM | > 30 µM | > 30 µM | > 30 µM | > 30 µM | > 30 µM | > 30 µM | > 30 µM | > 30 µM | > 30 µM | > 30 µM | > 30 µM | > 30 µM
CN1CCCN=C1/C=C/c1cccc(O)c1 [OXANTEL] | > 30 µM | > 30 µM | > 30 µM | 7.2 µM | > 30 µM | > 30 µM | – | > 30 µM | > 30 µM | > 30 µM | > 30 µM | – | > 30 µM
CC(=O)Oc1cccc2c1C(=O)c1c(OC(C)=O)cc(C(=O)O)cc1C2=O [DIACEREIN] | 12 µM | > 30 µM | – | 27 µM | > 30 µM | > 30 µM | > 30 µM | > 30 µM | > 30 µM | > 30 µM | > 30 µM | 13 µM | 23 µM
CC(=O)OCC(=O)[C@@]1(O)CC[C@H]2[C@@H]3CCC4=CC(=O)CC[C@]4(C)[C@@]3(F)[C@@H](O)C[C@@]21C [FLUDROCORTISONE ACETATE] | > 30 µM | > 30 µM | > 30 µM | > 30 µM | > 30 µM | > 30 µM | – | – | > 30 µM | > 30 µM | > 30 µM | > 30 µM | –
Cc1ccc(S(=O)(=O)NC(=O)N[C@H]2[C@H]3CC[C@@](C)([C@H]2O)C3(C)C)cc1 [GLIBORNURIDE] | > 30 µM | > 30 µM | > 30 µM | > 30 µM | > 30 µM | > 30 µM | > 30 µM | > 30 µM | > 30 µM | > 30 µM | > 30 µM | > 30 µM | > 30 µM
CNCCc1ccccn1 [BETAHISTINE] | > 30 µM | > 30 µM | > 30 µM | > 30 µM | > 30 µM | > 30 µM | – | – | > 30 µM | > 30 µM | > 30 µM | > 30 µM | –
